According to US7402548B2, “Benzoxazole compounds, process for producing the same and herbicides” (Kyoyu Agri Co., Ltd., priority 2000, dated 2008):

Columns and labels:
annual bluegrass [1] = assay: Soil treatment test for upland field; assay type: in vivo, Poa annua; design: key: 0 = normal development, 5 = all killed; details: 500 g/ha, 3 weeks, glass house 25° C.
How it was run: (§1)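 Using a pre-emergence soil application at 500 g/ha, treated pots were held 3 weeks in a glass house averaging 25° C. Injury was graded on a 0–5 scale against non-treated pots; "-" marks entries not investigated.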

bulrush = assay: Herbicidal test for paddy field; assay type: in vivo, Scrips juncoides; details: 500 g/ha, dropwise addition to paddy water at 1.5 leaf stage of barnyard grass; glass house 25° C., 3 weeks; rank 0-5 vs non-treated district
Method: (§2) Wagner pots, each having an area of 1/5000 are, were packed with Ube soil (alluvial soil) and planted with seeds or tubers of young rice plant, barnyard grass, bulrush, Cyperus serotinus Rottb., arrowhead and monochoria. Then, the pots were filled with water to a depth of 3 cm.
(§3) Each wettable powder of the desired Compounds (I) shown in Tables 1 to 21, 24, 25, 28 and 29 prepared in accordance with Example 2 was diluted with water containing a surfactant (0.05%) and subjected to dropwise addition treatment by using pipet so that an effective concentration of the compound (I) in each herbicide became 500 g/ha at 1.5 leaf stage of barnyard grass.
(§4) These plants were controlled in a glass house at an average temperature of 25° C. for 3 weeks, and then herbicidal effects thereof were investigated.
(§5) The herbicidal effects are evaluated according to the following 6 ranks as compared with non-treated district. (0: normal development, 1: Less damaged, 2: Slightly damaged, 3: Moderately damaged, 4: Severely damaged, 5: All killed). Incidentally, “-” in the column means not investigated.

Large crabgrass [2] = assay: Soil treatment test for upland field; assay type: in vivo, Digitaria adscendens; design: key: 0 = normal development, 5 = all killed; details: 500 g/ha, 3 weeks, glass house 25° C.
How it was run: as §1

velvetleaf [3] = assay: Foliar spread test for upland field; assay type: in vivo, Abutilon theophrasti; design: key: 0 = normal development, 5 = all killed (6 ranks vs. untreated); details: foliar spray, 500 ppm, 3 weeks, glass house 25° C.
How it was run: (§6)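 Scores on a 0–5 scale (0 normal development, 5 all killed), relative to untreated controls, were taken 3 weeks post-treatment in a 25 °C glass house. Treatment was a uniform foliar spray at 500 ppm (0.5% surfactant) onto roughly 2-week-old soil-grown plants.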

Cassia obtusifolia = assay: Foliar spread test for upland field; assay type: in vivo; design: key: 0 = normal development, 5 = all killed; details: foliar spray, 500 ppm, 3 weeks, glass house 25° C.
Method: as §5
(§7) Wagner pots, each having an area of 1/5000 are, were packed with volcanic ash soil and then each seed of corn, soybean, cotton, wheat, solgum, sugar beat, Large crabgrass, barnyardgrjass, green foxtail, blackgrass, annual bluegrass, common lambsquarters, livid amaranth, velvetleaf, morning glory, Xanthium pensylvanicum and Cassia obtusifolia was planted, covered with soil and grown in a glass house at an average temperature of 25° C. for about 2 weeks.
(§8) Each wettable powder of the desired compounds (I) shown in Tables 1 to 21, 24, 25, 28 and 29 prepared in accordance with Example 2 was diluted to 500 ppm with water containing a surfactant (0.5%) and then uniformly sprayed on the above respective plants.
(§9) After these plants were controlled in a glass house at an average temperature of 25° C. for 3 weeks, the herbicidal effects thereof were investigated.
(§10) The herbicidal effects were evaluated according to the evaluation method described in the above (1).

Xanthium pensylvanicum = assay: Foliar spread test for upland field; assay type: in vivo; design: key: 0 = normal development, 5 = all killed; details: foliar spray, 500 ppm, 3 weeks, glass house 25° C.
Method: as §5, §7, §8, §9, §10

blackgrass [4] = assay: Soil treatment test for upland field; assay type: in vivo, Alopecurus aegualis; design: key: 0 = normal development, 5 = all killed; details: 500 g/ha, 3 weeks, glass house 25° C.
How it was run: as §1

soybean [5] = assay: Foliar spread test for upland field; assay type: in vivo; design: key: 0 = normal development, 5 = all killed (6 ranks vs. untreated); details: foliar spray, 500 ppm, 3 weeks, glass house 25° C.
How it was run: as §6

solgum [6] = assay: Foliar spread test for upland field; assay type: in vivo; design: key: 0 = normal development, 5 = all killed (6 ranks vs. untreated); details: foliar spray, 500 ppm, 3 weeks, glass house 25° C.
How it was run: as §6

sugar beat [7] = assay: Foliar spread test for upland field; assay type: in vivo; design: key: 0 = normal development, 5 = all killed (6 ranks vs. untreated); details: foliar spray, 500 ppm, 3 weeks, glass house 25° C.
How it was run: as §6

corn [8] = assay: Foliar spread test for upland field; assay type: in vivo; design: key: 0 = normal development, 5 = all killed (6 ranks vs. untreated); details: foliar spray, 500 ppm, 3 weeks, glass house 25° C.
How it was run: as §6

cotton = assay: Foliar spread test for upland field; assay type: in vivo; design: key: 0 = normal development, 5 = all killed (6 ranks vs. untreated); details: foliar spray, 500 ppm, 3 weeks, glass house 25° C.
How it was run: as §6

wheat [9] = assay: Foliar spread test for upland field; assay type: in vivo; design: key: 0 = normal development, 5 = all killed (6 ranks vs. untreated); details: foliar spray, 500 ppm, 3 weeks, glass house 25° C.
How it was run: as §6

barnyard grass [10] = assay: Herbicidal test for paddy field; assay type: in vivo, Eschinochloa crusgalli; details: 500 g/ha, dropwise addition to paddy water at 1.5 leaf stage of barnyard grass; glass house 25° C., 3 weeks; rank 0-5 vs non-treated district
Method: as §2, §3, §4, §5

arrowhead = assay: Herbicidal test for paddy field; assay type: in vivo, Sagittaria pygmaea; details: 500 g/ha, dropwise addition to paddy water at 1.5 leaf stage of barnyard grass; glass house 25° C., 3 weeks; rank 0-5 vs non-treated district
Method: as §2, §3, §4, §5

morning glory [11] = assay: Soil treatment test for upland field; assay type: in vivo, Ipomoea spps.; design: key: 0 = normal development, 5 = all killed; details: 500 g/ha, 3 weeks, glass house 25° C.
How it was run: as §1

green foxtail [12] = assay: Soil treatment test for upland field; assay type: in vivo, Setaria viridis; design: key: 0 = normal development, 5 = all killed; details: 500 g/ha, 3 weeks, glass house 25° C.
How it was run: as §1

common lambsquarters [13] = assay: Soil treatment test for upland field; assay type: in vivo, Chenopodium album; design: key: 0 = normal development, 5 = all killed; details: 500 g/ha, 3 weeks, glass house 25° C.
How it was run: as §1

solgum [14] = assay: Soil treatment test for upland field; assay type: in vivo; design: key: 0 = normal development, 5 = all killed; details: 500 g/ha, 3 weeks, glass house 25° C.
How it was run: as §1

sugar beat [15] = assay: Soil treatment test for upland field; assay type: in vivo; design: key: 0 = normal development, 5 = all killed; details: 500 g/ha, 3 weeks, glass house 25° C.
How it was run: as §1

corn [16] = assay: Soil treatment test for upland field; assay type: in vivo; design: key: 0 = normal development, 5 = all killed; details: 500 g/ha, 3 weeks, glass house 25° C.
How it was run: as §1

wheat [17] = assay: Soil treatment test for upland field; assay type: in vivo; design: key: 0 = normal development, 5 = all killed; details: 500 g/ha, 3 weeks, glass house 25° C.
How it was run: as §1

common lambsquarters [18] = assay: Foliar spread test for upland field; assay type: in vivo, Chenopodium album; design: key: 0 = normal development, 5 = all killed (6 ranks vs. untreated); details: foliar spray, 500 ppm, 3 weeks, glass house 25° C.
How it was run: as §6

livid amaranth [19] = assay: Soil treatment test for upland field; assay type: in vivo, Amaranthus lividus; design: key: 0 = normal development, 5 = all killed; details: 500 g/ha, 3 weeks, glass house 25° C.
How it was run: as §1

green foxtail [20] = assay: Foliar spread test for upland field; assay type: in vivo, Setaria viridis; design: key: 0 = normal development, 5 = all killed (6 ranks vs. untreated); details: foliar spray, 500 ppm, 3 weeks, glass house 25° C.
How it was run: as §6

annual bluegrass [21] = assay: Foliar spread test for upland field; assay type: in vivo, Poa annua; design: key: 0 = normal development, 5 = all killed (6 ranks vs. untreated); details: foliar spray, 500 ppm, 3 weeks, glass house 25° C.
How it was run: as §6

[22] = test system: common Cocklebur (Xanthium strumarium); assay: Soil treatment test for upland field; assay type: in vivo; details: 500 g/ha, 3 weeks, glass house 25° C.
Method: as §5
Wagner pots, each having an area of 1/5000 are, were packed with Ube soil (alluvial soil), and then each seed of corn, soybean, cotton, wheat, solgum, sugar beat, Large crabgrass, barnyard grass, green foxtail, blackgrass, annual bluegrass, common lambsquarters, livid amaranth, velvetleaf, morning glory, common Cocklebur (Xanthium strumarium) and sicklepod (Cassia obtusifolia) were planted and covered with soil.
Each wettable powder of the desired compounds (I) shown in Tables 1 to 21, 24, 25, 28 and 29 prepared in accordance with Example 2 was diluted with water containing a surfactant (0.05%) and uniformly sprayed on the surface of each soil so that an effective concentration of the compound (I) in each herbicide became 500 g/ha.
as §4, §10

blackgrass [23] = assay: Foliar spread test for upland field; assay type: in vivo, Alopecurus aegualis; design: key: 0 = normal development, 5 = all killed (6 ranks vs. untreated); details: foliar spray, 500 ppm, 3 weeks, glass house 25° C.
How it was run: as §6

velvetleaf [24] = assay: Soil treatment test for upland field; assay type: in vivo, Abutilon theophrasti; design: key: 0 = normal development, 5 = all killed; details: 500 g/ha, 3 weeks, glass house 25° C.
How it was run: as §1

Large crabgrass [25] = assay: Foliar spread test for upland field; assay type: in vivo, Digitaria adscendens; design: key: 0 = normal development, 5 = all killed (6 ranks vs. untreated); details: foliar spray, 500 ppm, 3 weeks, glass house 25° C.
How it was run: as §6

barnyardgrjass = assay: Foliar spread test for upland field; assay type: in vivo, Eschinochloa crusgalli; design: key: 0 = normal development, 5 = all killed (6 ranks vs. untreated); details: foliar spray, 500 ppm, 3 weeks, glass house 25° C.
How it was run: as §6

barnyard grass [26] = assay: Soil treatment test for upland field; assay type: in vivo, Eschinochloa crusgalli; design: key: 0 = normal development, 5 = all killed; details: 500 g/ha, 3 weeks, glass house 25° C.
How it was run: as §1

morning glory [27] = assay: Foliar spread test for upland field; assay type: in vivo, Ipomoea spps.; design: key: 0 = normal development, 5 = all killed (6 ranks vs. untreated); details: foliar spray, 500 ppm, 3 weeks, glass house 25° C.
How it was run: as §6

Cyperus serotinus Rottb. = assay: Herbicidal test for paddy field; assay type: in vivo; details: 500 g/ha, dropwise addition to paddy water at 1.5 leaf stage of barnyard grass; glass house 25° C., 3 weeks; rank 0-5 vs non-treated district
Method: as §2, §3, §4, §5

livid amaranth [28] = assay: Foliar spread test for upland field; assay type: in vivo, Amaranthus lividus; design: key: 0 = normal development, 5 = all killed (6 ranks vs. untreated); details: foliar spray, 500 ppm, 3 weeks, glass house 25° C.
How it was run: as §6

monochoria = assay: Herbicidal test for paddy field; assay type: in vivo, Monochoria vaginalis; details: 500 g/ha, dropwise addition to paddy water at 1.5 leaf stage of barnyard grass; glass house 25° C., 3 weeks; rank 0-5 vs non-treated district
Method: as §2, §3, §4, §5

soybean [29] = assay: Soil treatment test for upland field; assay type: in vivo; design: key: 0 = normal development, 5 = all killed; details: 500 g/ha, 3 weeks, glass house 25° C.
How it was run: as §1

SMILES	Effects Annual bluegrass (annual bluegrass [1])	Effects Large crabgrass (Large crabgrass [2])	Effects Corn (corn [8])	Effects Wheat (wheat [9])	Effects Barnyardgrass (barnyard grass [10])	Effects Green foxtail (green foxtail [12])	Effects Common lambsquarters (common lambsquarters [13])	Effects Corn (corn [16])	Effects Wheat (wheat [17])	Effects Common lambsquarters (common lambsquarters [18])	Effects Livid amaranth (livid amaranth [19])	Effects Green foxtail (green foxtail [20])	Effects Large crabgrass (Large crabgrass [25])	Effects Barnyardgrass (barnyard grass [26])	Effects Livid amaranth (livid amaranth [28])	Effects Monochoria (monochoria)	Effects Soybean (soybean [29])	other results
FC(F)(F)c1cccc(Oc2cccc(-c3nc4cc(C(F)(F)F)ccc4o3)n2)c1 [I-a-13]	5	5	2	2	2	5	5	1	1	5	5	5	3	4	5	–	–	Effects Bulrush (bulrush): 0; Effects Velvetleaf (velvetleaf [3]): 4; Effects Sicklepod (Cassia obtusifolia): 5; Effects Common Cocklebur (Xanthium pensylvanicum): 4; Effects Blackgrass (blackgrass [4]): 4; Effects Soybean (soybean [5]): 3; Effects Solgum (solgum [6]): 2; Effects Sugar beat (sugar beat [7]): 4; Effects Sotton (cotton): 5; Effects Arrowhead (arrowhead): 1; Effects Morning glory (morning glory [11]): 4; Effects Solgum (solgum [14]): 0; Effects Sugar beat (sugar beat [15]): 5; Effects Annual bluegrass (annual bluegrass [21]): 4; Effects Common Cocklebur [22]: 3; Effects Blackgrass (blackgrass [23]): 3; Effects Velvetleaf (velvetleaf [24]): 5; Effects Barnyardgrass (barnyardgrjass): 2; Effects Morning glory (morning glory [27]): 5; Effects Cyperus serotinus Rottb. (Cyperus serotinus Rottb.): 0
CCC(Oc1cc(C(F)(F)F)nn1C)c1nc2cc(C#N)c(Cl)cc2o1 (stereo not drawn) [Compound 1-e-11]	5	5	–	1	4	5	5	0	0	5	5	–	–	4	5	4	–	–
CCC(Sc1cc(C(F)(F)F)nn1C)c1nc2cc(Cl)ccc2o1 (stereo not drawn) [Compound 1-e-12]	4	5	–	–	–	2	3	0	0	–	4	–	–	3	–	5	0	–
CCC(Oc1cc(C(F)(F)F)no1)c1nc2cc(C#N)c(F)cc2o1 (stereo not drawn) [Compound 1-e-28]	5	5	2	2	5	5	5	0	0	5	5	4	4	4	5	5	1	–
